Results from patent US20090312284A1, “HISTONE DEACETYLASE INHIBITORS WITH COMBINED ACTIVITY ON CLASS-I AND CLASS-IIB HISTONE DEACETYLASES IN COMBINATION WITH PROTEASOME INHIBITORS” (priority 2006, published 2009).

Tests used:
[1] = system: acetylation of tubulin and induction of Hsp 70; test: Acetylation of tubulin and induction of Hsp 70 in A2780 cells; format: cell-based, human; conditions: A2780 ovarian carcinoma cells, 24 h, 0-3000 nM, Western blot
Procedure: Total cell lysates were prepared and analysed by SDS-PAGE. […] Hsp 70 protein was detected with an antibody from Stressgen (Cat. nr. SPA-810), followed by ECL detection. Appropriate dilutions of antibodies were incubated for either 1-2 h at room temperature or overnight at 4° C. In order to control for equal loading, blots were stripped and re-probed with mouse monoclonal anti-actin IgM (Ab-1, Oncogene Research Products). […] Protein-antibody complexes were then visualized by chemiluminescence (Pierce Chemical Co) or fluorescence (Odyssey) according to the manufacturer's instructions. The experiments were performed three times.

[2] = system: acetylation of histone H3 and H4 and induction of p21waf1,cip1; test: Acetylation of cellular HDAC 1 substrates and induction of p21waf1,cip1 in A2780 cells; format: cell-based, human; conditions: A2780 ovarian carcinoma cells, 24 h, 0-3000 nM, Western blot
Procedure: Total cell lysates were prepared and analysed by SDS-PAGE. Levels of acetylated H3 and H4 histones, total level of H3 proteins and levels p21^waf1,cip1 protein were detected using rabbit polyclonal and mouse monoclonal antibodies, followed by enhanced chemoluminescence (ECL) detection.
Appropriate dilutions of antibodies were incubated for either 1-2 h at room temperature or overnight at 4° C. […] Protein-antibody complexes were then visualized by chemiluminescence (Pierce Chemical Co) or fluorescence (Odyssey) according to the manufacturer's instructions. The experiments were performed three times.

HCT-116 cells = conditions: p21waf1,cip1 deficient cells as compared to the parental HCT-116 cells; cited from earlier work

Compound	concentration when start of induction of acetylation of tubulin and induction of Hsp 70 is observed [1]	concentration when induction of acetylation of histone H3 and H4 and induction of p21waf1,cip1 is observed [2]	increase in resistance to the HDAC inhibitor (HCT-116 cells)
Cc1[nH]c2ccccc2c1CCNCc1ccc(/C=C/C(=O)NO)cc1 [LBH-589]	30 nM	–	–
O=C(NO)c1cnc(N2CCN(S(=O)(=O)c3ccc4ccccc4c3)CC2)nc1 [R306465]	–	100 nM	–
O=C(CCCCCCC(=O)Nc1ccccc1)NO [SAHA, suberoylanilide hydroxamic acid]	100 nM	3000 nM	–
CC(/C=C/C(=O)NO)=C\[C@@H](C)C(=O)c1ccc(N(C)C)cc1 [trichostatin A]	–	–	6 fold
